According to patent US12473295B2, “Substituted straight chain spiro derivatives” (Janssen Pharmaceutica NV, priority 2019, dated 2025):
Structures can show the parent of a compound that is named as a salt. Where two headings read alike, the source gives them in different places.

Columns and labels:
KO-52 cells = assay: Proliferation assay (spheroid growth, 8 days), KO-52 control cell line; format: cell-based, human; conditions: read-out: spheroid assay_OneTime KO-52 IC50
Method in brief: (§1)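 8-day spheroid growth in ultra-low attachment plates; seeding 200 cells (MOLM14, OCI-AML3) or 300 (KO-52); DMSO 0.3%. Day-8 imaging, confluence vs DMSO (0%) and top reference dose (baseline); IC50 by variable-slope fit.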

[1] = Mouse PK (in vivo T1/2 and oral bioavailability); conditions: fasted male CD-1 mice, formulating agent HP-β-CD
Procedure: 3) Mouse PK (In Vivo T1/2 and Oral Bioavailability)
In vivo pharmacokinetics (PK) were assessed in fasted male CD-1 mice (age 6-8 weeks) following a single intravenous (IV, 0.5 or 1.0 mg/kg administered at 2.5 ml/kg) or oral (PO, 5 mg/kg administered at 10 ml solution/kg) dose of test article formulated in a 20% (w:vol) HP-β-CD solution or in Pyrogen free water.
Plasma and/or whole blood samples were collected from the dorsal metatarsal vein at desired timepoints via serial capillary microsampling (approx. 0.03 mL) using EDTA as an anticoagulant. Concentrations of compound in the plasma and blood samples were analyzed using a qualified LC-MS/MS method. In silico analysis of main pharmacokinetic parameters was performed using WinNonlin (Phoenix™, version 6.1) or similar software. (Results see Table 4)

OCI-AML3 cells = assay: Proliferation assay (spheroid growth, 8 days), OCI-AML3; format: cell-based, human; conditions: OCI-AML3, 8 days
Method in brief: as §1

MEIS1 mRNA = MEIS1 mRNA expression assay (Quantigene Singleplex) in MOLM14 cells; format: cell-based, human; conditions: 48 hours incubation;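 also: MEIS1 transcript levels read by probe hybridization and normalized to RPL28 mRNA, with IC50 fitted to fold changes across a rising compound concentration series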
[2] = biological target: menin/MLL (terbium chelate-labeled menin, FITC-MBM1 peptide) (Homo sapiens (Human), UniProt O00255); assay: Menin/MLL homogenous time-resolved fluorescence (HTRF) assay; format: binding;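 also: IC50 from percent inhibition of HTRF signal, normalized between wells without competitor and wells with a saturating competitor that displaces FITC-MBM1 from His-tagged menin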
menin/MLL (terbium chelate-labeled menin, FITC-MBM1 peptide), sequence (O00255 other isoform, or with tags, fused parts or gaps): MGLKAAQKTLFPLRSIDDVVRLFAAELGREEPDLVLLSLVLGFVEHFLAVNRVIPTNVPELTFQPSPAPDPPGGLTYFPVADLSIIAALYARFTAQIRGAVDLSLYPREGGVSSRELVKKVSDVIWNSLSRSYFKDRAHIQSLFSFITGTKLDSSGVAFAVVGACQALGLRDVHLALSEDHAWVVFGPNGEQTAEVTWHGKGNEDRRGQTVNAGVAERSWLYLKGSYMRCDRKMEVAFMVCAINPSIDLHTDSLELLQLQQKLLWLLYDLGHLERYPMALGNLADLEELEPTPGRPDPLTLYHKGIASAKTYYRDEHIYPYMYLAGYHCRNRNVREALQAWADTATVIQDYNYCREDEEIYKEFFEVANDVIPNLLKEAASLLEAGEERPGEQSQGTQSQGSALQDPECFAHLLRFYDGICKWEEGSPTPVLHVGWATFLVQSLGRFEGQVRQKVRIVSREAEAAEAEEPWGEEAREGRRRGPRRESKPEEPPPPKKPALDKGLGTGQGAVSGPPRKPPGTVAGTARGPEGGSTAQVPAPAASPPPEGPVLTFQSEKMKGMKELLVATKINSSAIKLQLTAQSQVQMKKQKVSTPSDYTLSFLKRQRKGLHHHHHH

MOLM14 cells = assay: Proliferation assay (spheroid growth, 8 days), MOLM14; format: cell-based, human; conditions: MOLM14, 8 days, read-out: spheroid assay_OneTime MOLM14 IC50;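 also: spheroid size read as confluence by live-cell imaging, compounds added at a range of concentrations with 0.3% DMSO, DMSO-treated wells = 0%, highest reference dose = low control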
[3] = Metabolic stability in mouse liver microsomes; format: in vitro ADME; conditions: mouse liver microsomes 0.5 mg/mL, 1 μM test compound, pH 7.4; for microsomal CLint at 1 μM: read-out: Mouse LM Clint
Procedure: (§2) 4) Metabolic Stability in Human/Mouse Liver Microsomes
(§3) The objective of this study is to measure in vitro metabolic stability of test compound(s) in human and mouse liver microsomes and provide quantitative information on the rate of metabolic turnover (i.e. determination of the apparent intrinsic clearance of test).
(§4) Test items were prepared at a stock concentration of 10 mM in DMSO. For determination of metabolic turnover, a final working solution was prepared by adding 2 μL of 10 mM DMSO stock solution for test compound or positive control compounds to 198 μL of acetonitrile (100 μM final concentration).
(§5) Incubations were performed as follows: First, liver microsomes were thawed on ice and a master solution containing liver microsomes in 100 mM PBS (phosphate-buffered saline) at pH 7.4 is prepared. Next, the liver microsomes solution was added to the incubation plates and 10 mM NADPH (Nicotinamide-adenine dinucleotide phosphate) was added (MW: 833.4 g/mol; Roche Diagnostics GmbH, Germany. Dissolved in phosphate buffer (100 mmol/L, pH 7.4)). The mixture was mixed for 10 seconds and pre-warmed in the incubation plate at 37° C. for 10 minutes. The metabolic reaction was initiated with the addition of 5 μL of the 100 μM working solution for test compound or positive control compounds to incubation plate (final test item concentration=1 μM). The reaction final mixture should contain 1 mM NADPH, 0.5 mg/mL microsomes protein and 1 μM test compound or positive control compound in 100 mM PBS at pH 7.4. The percentage of organic solvent in incubation mixture is 1% with DMSO ≤0.02%.
(§6) The reaction was quenched by transferring 50 μL of the incubated mixture at selected time points into the quenching plate containing 200 μL of cold methanol. After sampling of all the timepoints the quenching plate was centrifuged at 4000 rpm for 40 minutes to precipitate protein. A total of 90 μL of the supernatant was transferred to an analysis plate and ultra-pure H2O water is added into each well for LC/MS/MS analysis. All incubations and analysis were performed in duplicate.
(§7) All calculations were carried out using Microsoft Excel. The slope value, k, was determined by linear regression of the natural logarithm of the remaining percentage of the parent drug vs. incubation time curve.
(§8) The in vitro half-life (in vitro tin) was determined from the slope value: in vitro t1/2=−(0.693/k)
(§9) Conversion of the in vitro tin (in min) into the in vitro intrinsic clearance (in vitro CLint, in μL/min/mg proteins) was done using the following equation: […]

[4] = Metabolic stability in human liver microsomes; format: in vitro ADME; conditions: human liver microsomes 0.5 mg/mL, 1 μM test compound, pH 7.4; for microsomal CLint at 1 μM: read-out: Human LM Clint
Procedure: as §2, §3, §4, §5, §6, §7, §8, §9

hERG potassium channel = hERG potassium channel (Homo sapiens (Human), UniProt Q12809); assay: Effect on membrane potassium current IKr in hERG transfected CHO cells, Protocol 1 (QPatch); format: cell-based
hERG potassium channel, sequence (Q12809 whole entry): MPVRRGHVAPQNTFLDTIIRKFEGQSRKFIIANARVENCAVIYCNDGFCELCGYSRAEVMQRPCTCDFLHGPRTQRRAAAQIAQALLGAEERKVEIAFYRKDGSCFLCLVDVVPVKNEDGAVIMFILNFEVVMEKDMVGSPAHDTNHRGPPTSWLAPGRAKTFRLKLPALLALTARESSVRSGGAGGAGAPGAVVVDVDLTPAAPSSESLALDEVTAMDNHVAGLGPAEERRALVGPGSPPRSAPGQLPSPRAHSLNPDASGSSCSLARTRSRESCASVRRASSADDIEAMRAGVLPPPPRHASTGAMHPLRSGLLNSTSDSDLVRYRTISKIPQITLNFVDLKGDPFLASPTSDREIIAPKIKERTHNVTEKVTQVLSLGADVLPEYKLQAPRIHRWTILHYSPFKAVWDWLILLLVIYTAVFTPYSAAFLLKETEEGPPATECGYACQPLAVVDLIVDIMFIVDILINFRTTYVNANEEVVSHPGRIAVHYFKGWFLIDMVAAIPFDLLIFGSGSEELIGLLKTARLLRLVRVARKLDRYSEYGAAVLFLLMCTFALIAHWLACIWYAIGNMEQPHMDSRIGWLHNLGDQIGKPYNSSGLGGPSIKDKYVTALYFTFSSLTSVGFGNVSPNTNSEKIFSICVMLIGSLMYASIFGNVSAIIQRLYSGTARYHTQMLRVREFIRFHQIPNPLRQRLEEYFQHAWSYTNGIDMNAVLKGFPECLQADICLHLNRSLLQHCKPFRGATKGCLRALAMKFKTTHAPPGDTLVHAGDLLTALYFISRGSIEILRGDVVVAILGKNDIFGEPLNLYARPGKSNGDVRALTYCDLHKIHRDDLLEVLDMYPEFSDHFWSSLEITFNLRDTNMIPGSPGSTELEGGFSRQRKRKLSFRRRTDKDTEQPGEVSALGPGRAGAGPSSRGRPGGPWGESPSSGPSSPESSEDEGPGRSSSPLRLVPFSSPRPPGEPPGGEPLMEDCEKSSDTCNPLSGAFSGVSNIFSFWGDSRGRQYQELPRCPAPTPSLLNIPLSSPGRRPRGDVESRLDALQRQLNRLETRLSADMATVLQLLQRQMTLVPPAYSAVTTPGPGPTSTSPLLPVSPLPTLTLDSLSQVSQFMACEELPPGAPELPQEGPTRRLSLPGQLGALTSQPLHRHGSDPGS
Method in brief: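 Whole-cell automated patch clamp on CHO cells stably expressing hERG, held at −80 mV; the value is the tail current at −40 mV after a 2 s step to +60 mV, at pH 7.4 bath and pH 7.2 pipette. After 0.3% DMSO control, compound was applied at 3×10^−7 M, 3×10^−6 M, 10^−5 M and 3×10^−5 M, 5 min each. IC50 comes from a non-linear least-squares fit of block versus vehicle.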

[5] = HTRF-30 min incubation IC50, 30 min incubation
[6] = read-out: HTRF-30 min incubation IC50, 30 min incubation

SMILES | half-life ([1]; single IV 0.5 or 1.0 mg/kg) | bioavailability ([1]; single PO 5 mg/kg) | IC50 (OCI-AML3 cells; Homo sapiens, OCI-AML-3, […]) | IC50 (MEIS1 mRNA; Homo sapiens, MOLM-14, 48 h) | IC50 [2, 5] | IC50 (MOLM14 cells; Homo sapiens, MOLM-14, […]) | microsomal CLint at 1 μM [3] | microsomal CLint at 1 μM [4] | IC50 (OCI-AML3 cells) | IC50 (MEIS1 mRNA) | IC50 [2, 6] | IC50 (MOLM14 cells) | Mouse LM Clint [3] | Human LM Clint [4] | IC50 (KO-52 cells; Homo sapiens, […]) | IC50 (hERG potassium channel) | IC50 (KO-52 cells)
CCN(C(=O)c1cc(F)ccc1Oc1nncnc1N1CCC2(C1)CN([C@H](CCCN(C)C(COC)COC)C(C)C)C2)C(C)C [Compound 161, (R)-2-((5-(2-(6-((1,3-dimethoxypropan-2-yl)(methyl)amino)-2-methylhexan-3-yl)-2,6-diazaspiro[3.4]octan-6-yl)-1,2,4-triazin-6-yl)oxy)-N-ethyl-5-fluoro-N-isopropylbenzamide fumarate] |  |  | 55 nM | 41 nM | 0.23 nM | 16 nM | 55 µL/min/mg | 70 µL/min/mg |  |  |  |  |  |  | > 15000 nM |  | 
CCN(C(=O)c1cc(F)ccc1Oc1nnccc1N1CCC2(C1)CN([C@H](CCCN(C)CCOC)C(C)C)C2)C(C)C (single isomer, unassigned) [Compound 83] |  |  | 420 nM | 92 nM |  | 170 nM | > 1000 µL/min/mg | 539 µL/min/mg |  |  |  |  |  |  | 6240 nM | 6000 nM | 
CCN(C(=O)c1cc(F)ccc1Oc1nncnc1N1CCC2(C1)CN([C@H](CCCNC(C)=O)C(C)C)C2)C(C)C [Compound 6, (R)-2-((5(2-(6-acetamido-2-methylhexan-3-yl)-2,6-diazaspiro[3.4]octan-6-yl)-1,2,4-triazin-6-yl)oxy)-N-ethyl-5-fluoro-N-isopropylbenzamide formate] |  |  | 1860 nM | 360 nM | 0.61 nM | 480 nM | 28 µL/min/mg | 35 µL/min/mg |  |  |  |  |  |  | > 15000 nM |  | 
CNC(=O)CC[C@@H](C(C)C)N1CC2(CCN(c3ncnnc3Oc3ccc(F)cc3-c3cncnc3C3CC3)C2)C1 (single isomer, unassigned) [Compound 45, (*S)-4-(6-(6-(2-(4-cyclopropylpyrimidin-5-yl)-4-fluorophenoxy)-1,2,4-triazin-5-yl)-2,6-diazaspiro[3.4]octan-2-yl)-N,5-dimethylhexanamide] |  |  |  |  |  |  |  |  | 1250 nM | 210 nM | 0.37 nM | 220 nM | 110 µL/min/mg | 43 µL/min/mg |  | 12600 nM | > 15000 nM
CCN(C(=O)c1cc(F)ccc1Oc1nncnc1N1CCC2(C1)CN([C@H](CCCN(C)CCC#N)C(C)C)C2)C(C)C [Compound 13] |  |  | 210 nM | 77 nM | 0.4 nM | 61 nM | 44 µL/min/mg | 75 µL/min/mg |  |  |  |  |  |  | > 15000 nM | 25700 nM | 
CCN(C(=O)c1cc(F)ccc1Oc1nncnc1N1CCC2(C1)CN([C@H](CCCO)C(C)C)C2)C(C)C (single isomer, unassigned) [Compound 47, (*R)—N-ethyl-5-fluoro-2-((5-(2-(6-hydroxy-2-methylhexan-3-yl)-2,6-diazaspiro[3.4]octan-6-yl)-1,2,4-triazin-6-yl)oxy)-N-isopropylbenzamide] |  |  |  |  |  |  |  |  | 600 nM | 140 nM | 0.31 nM | 220 nM | 47 µL/min/mg | 38 µL/min/mg |  | > 30200 nM | 10800 nM

Continued, in another order:

half-life ([1]; single IV 0.5 or 1.0 mg/kg) | bioavailability ([1]; single PO 5 mg/kg) | IC50 (OCI-AML3 cells; Homo sapiens, OCI-AML-3, […]) | IC50 (MEIS1 mRNA; Homo sapiens, MOLM-14, 48 h) | IC50 [2, 5] | IC50 (MOLM14 cells; Homo sapiens, MOLM-14, […]) | microsomal CLint at 1 μM [3] | microsomal CLint at 1 μM [4] | IC50 (OCI-AML3 cells) | IC50 (MEIS1 mRNA) | IC50 [2, 6] | IC50 (MOLM14 cells) | Mouse LM Clint [3] | Human LM Clint [4] | SMILES | IC50 (KO-52 cells; Homo sapiens, […]) | IC50 (hERG potassium channel) | IC50 (KO-52 cells)
5.2 h | 5.1% | 130 nM | 33 nM | 0.058 nM | 36 nM | < 7.5 µL/min/mg | 11 µL/min/mg |  |  |  |  |  |  | CCN(C)C[C@H](O)C[C@H](C(C)C)N1CC2(CCN(c3ncnnc3Oc3ccc(F)cc3C(=O)N(CC)C(C)C)C2)C1.O=C(O)/C=C/C(=O)O (single isomer, unassigned) [Compound 346, N-ethyl-2-((5-(2-((3*R,5R)-6-(ethyl(methyl)amino)-5-hydroxy-2-methylhexan-3-yl)-2,6-diazaspiro[3.4]octan-6-yl)-1,2,4-triazin-6-yl)oxy)-5-fluoro-N-isopropylbenzamide fumarate] | > 15000 nM |  | 
 |  | 140 nM | 17 nM | 0.08 nM | 23 nM | < 7.5 µL/min/mg | 22 µL/min/mg |  |  |  |  |  |  | CC(C)[C@@H](CCCN(C)C)N1CC2(CCN(c3ncnnc3Oc3ccc(F)cc3C(=O)N(C(C)C)C(C)C)C2)C1 (single isomer, unassigned) [Compound 396, (*R)-2-((5-(2-(6-(dimethylamino)-2-methylhexan-3-yl)-2,6-diazaspiro[3.4]octan-6-yl)-1,2,4-triazin-6-yl)oxy)-5-fluoro-N,N-diisopropylbenzamide oxalate] | 8510 nM | > 30200 nM | 
 |  |  |  |  |  |  |  | 380 nM | 140 nM | 0.49 nM | 120 nM | 80 µL/min/mg | 44 µL/min/mg | CCN(C(=O)c1cc(F)ccc1Oc1nncnc1N1CCC2(C1)CN([C@H](CCO)C(C)C)C2)C(C)C (single isomer, unassigned) [Compound 214, (*R)—N-ethyl-5-fluoro-2-((5-(2-(1-hydroxy-4-methylpentan-3-yl)-2,6-diazaspiro[3.4]octan-6-yl)-1,2,4-triazin-6-yl)oxy)-N-isopropylbenzamide] |  |  | > 15000 nM
